Assay results taken from patent US7781590B2, “Piperidinylalkylcarbamate derivatives, methods for their preparation and the therapeutic use thereof as fatty acid amido hydrolase enzyme inhibitors” (Sanofi-Aventis, priority 2004, dated 2010).

What was measured:
[1] = target: T1, enzyme FAAH (fatty acid amide hydrolase) (Mus musculus, UniProt O08914); assay: radioenzymatic assay of FAAH inhibition (hydrolysis of anandamide [1-3H ethanolamine], mouse brain membrane homogenates); format: biochemical; conditions: 10 μM anandamide, 15 minutes at 25° C., read-out: IC50 (concentration inhibiting by 50% the control enzymatic activity of FAAH)
T1 construct: Membrane homogenates are prepared at the time of use by homogenizing the tissues in a Polytron; from tissue; host or cells: mouse brain (minus the cerebellum), membrane homogenate
T1 sequence (O08914 1-579): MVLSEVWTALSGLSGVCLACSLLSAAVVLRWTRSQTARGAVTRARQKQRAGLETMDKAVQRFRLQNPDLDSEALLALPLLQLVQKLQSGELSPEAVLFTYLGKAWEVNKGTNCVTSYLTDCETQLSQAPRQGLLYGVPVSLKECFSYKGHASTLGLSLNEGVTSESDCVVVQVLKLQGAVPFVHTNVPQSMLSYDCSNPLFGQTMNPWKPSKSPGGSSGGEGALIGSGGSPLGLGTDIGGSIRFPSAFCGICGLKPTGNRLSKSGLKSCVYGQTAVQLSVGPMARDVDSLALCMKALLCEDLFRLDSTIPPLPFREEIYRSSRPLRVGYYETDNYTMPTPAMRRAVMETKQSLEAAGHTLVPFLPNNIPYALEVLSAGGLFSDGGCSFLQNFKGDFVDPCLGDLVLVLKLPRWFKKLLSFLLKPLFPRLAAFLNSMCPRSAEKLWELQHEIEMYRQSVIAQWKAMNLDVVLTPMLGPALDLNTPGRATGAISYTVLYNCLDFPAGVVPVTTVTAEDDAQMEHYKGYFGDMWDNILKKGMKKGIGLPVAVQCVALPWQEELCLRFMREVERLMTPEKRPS
Procedure: The compounds of the invention were subjected to pharmacological tests allowing determination of their inhibitory effect on the enzyme FAAH (fatty acid amide hydrolase).
Accordingly, mouse brains (minus the cerebellum) are removed and stored at −80° C. Membrane homogenates are prepared at the time of use by homogenizing the tissues in a Polytron in a 10 mM Tris-HCl buffer (pH 8.0) containing 150 mM NaCl and 1 mM EDTA. The enzymatic reaction is subsequently conducted in 70 μl of buffer containing bovine serum albumin without fatty acids (1 mg/ml). In succession the test compounds, at various concentrations, anandamide [1-^3H ethanolamine] (specific activity: 15-20 Ci/mmol) diluted to 10 μM with cold anandamide, and the membrane preparation (400 μg of frozen tissue per assay) are added. After 15 minutes at 25° C., the enzymatic reaction is terminated by adding 140 μl of chloroform/methanol (2:1). The mixture is stirred for 10 minutes and then centrifuged for 15 minutes at 3500 g. An aliquot (30 μl) of the aqueous phase containing the ethanolamine [1-^3H] is counted by liquid scintillation.

male OF1 mice = assay: analgesia test: abdominal stretches induced by PBQ (phenylbenzoquinone); format: in vivo; conditions: 10 mg/kg p.o. at 120 minutes
Procedure: The in vivo activity of the compounds of the invention was evaluated in an analgesia test.
Accordingly, intraperitoneal (i.p.) administration of PBQ (phenylbenzoquinone, 2 mg/kg in a 0.9% sodium chloride solution containing 5% of ethanol) to male OF1 mice weighing 25 to 30 g causes abdominal stretches, on average 30 twists or contractions during the period from 5 to 15 minutes after injection. The test compounds are administered orally (p.o.) or intraperitoneally (i.p.) in suspension in Tween 80 at 0.5%, 60 minutes or 120 minutes before the administration of PBQ.

Compound	IC50 [1] [nM]	melting point [°C]	reduction of the number of stretches induced by PBQ (male OF1 mice) [%]
CNC(=O)COC(=O)NCCC1CCN(Cc2ccc(-c3ccccc3)cc2)CC1 [Compound 25, 2-(methylamino)-2-oxoethyl 2-[1-(biphenyl-4-ylmethyl)piperidin-4-yl]ethylcarbamate]	225	106 to 110	–
CNC(=O)COC(=O)NCCC1CCN(Cc2ccc(-c3ccc(F)cc3)cc2F)CC1 [Compound 26, 2-(methylamino)-2-oxoethyl 2-{1-[(3,4′-difluorobiphenyl-4-yl)methyl]piperidin-4-yl}ethylcarbamate]	–	143 to 145	56
CNC(=O)COC(=O)NCC1CCN(CCOc2ccc(Cl)cc2Cl)CC1 [Compound 77]	49	–	–
